Where “and” joins values, the source holds several entries; their conditions need not be identical. Equal entries are not always repeated.
Test system: TGR in newly transformed schistosomula (NTS)
Assay: TGR inhibition in NTS with TRFS-Green fluorescent probe;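 also: untreated reference is NTS exposed to TRFS-Green probe alone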
Format: cell-based, S. mansoni
Settings: NTS
Description: TGR inhibition in NTS was assessed using a fluorescent probe TRFS-Green (Medchemexpress)[43]. NTS prepared as previously described and cultured in M199 supplemented with 5.5 mM D-glucose, penicillin-streptomycin and 5% heat inactivated fetal bovine serum were incubated at 37 °C in a clear bottom flat well plate in a 5% CO2 incubator overnight. […] NTS were further treated with TRFS-Green (10 µM) for additional 4 h and rinsed with M199 medium to remove residual TRFS-Green. Fluorescence images were obtained using Keyence BZ-X800. The quantification of fluorescence intensity upon the uptake of TRFS-Green by NTS was performed by a fluorescent microplate imager (BioTek Cytation3) (excitation, 438 nm; emission, 538 nm) hourly for 5 h and after 24 h.

Compound | TGR inhibition visualized by TRFS-Green, Average (1hr, 5 µM) | TGR inhibition visualized by TRFS-Green, single replicate (1hr, 5 µM) | TGR inhibition visualized by TRFS-Green, Average (1hr, 15 µM) | TGR inhibition visualized by TRFS-Green, single replicate (1hr, 15 µM) | TGR inhibition visualized by TRFS-Green, Average (1hr, 30 µM) | TGR inhibition visualized by TRFS-Green, single replicate (1hr, 30 µM) | TGR inhibition visualized by TRFS-Green, Average (2hr, 5 µM) | TGR inhibition visualized by TRFS-Green, single replicate (2hr, 5 µM) | TGR inhibition visualized by TRFS-Green, Average (2hr, 15 µM) | TGR inhibition visualized by TRFS-Green, single replicate (2hr, 15 µM) | TGR inhibition visualized by TRFS-Green, Average (2hr, 30 µM) | TGR inhibition visualized by TRFS-Green, single replicate (2hr, 30 µM) | TGR inhibition visualized by TRFS-Green, Average (3hr, 5 µM) | TGR inhibition visualized by TRFS-Green, single replicate (3hr, 5 µM) | TGR inhibition visualized by TRFS-Green, Average (3hr, 15 µM) | TGR inhibition visualized by TRFS-Green, single replicate (3hr, 15 µM) | TGR inhibition visualized by TRFS-Green, Average (3hr, 30 µM) | TGR inhibition visualized by TRFS-Green, single replicate (3hr, 30 µM) | TGR inhibition visualized by TRFS-Green, Average (4hr, 5 µM) | TGR inhibition visualized by TRFS-Green, single replicate (4hr, 5 µM) | other results
Cc1oc(C2CCCCC2)nc1CN[C@@H]1C[C@@H]2C[C@H]([C@H]1C)C2(C)C [C4 (8VP121-1)] | 12224.5 | 12022 and 12427 | 11617.5 | 11812 and 11423 | 10356 | 10371 and 10341 | 19189 | 19355 and 19023 | 17814.5 | 17877 and 17752 | 13785 | 13959 and 13611 | 24561 | 24110 and 25012 | 22452 | 22972 and 21932 | 19172 | 19108 and 19236 | 26229 | 26469 and 25989 | TGR inhibition visualized by TRFS-Green, Average (4hr, 15 µM): 23381.5; TGR inhibition visualized by TRFS-Green, single replicate (4hr, 15 µM): 23782 and 22981; TGR inhibition visualized by TRFS-Green, Average (4hr, 30 µM): 19196; TGR inhibition visualized by TRFS-Green, single replicate (4hr, 30 µM): 19157 and 19235; TGR inhibition visualized by TRFS-Green, Average (5hr, 5 µM): 27106; TGR inhibition visualized by TRFS-Green, single replicate (5hr, 5 µM): 27097 and 27115; TGR inhibition visualized by TRFS-Green, Average (5hr, 15 µM): 23897.5; TGR inhibition visualized by TRFS-Green, single replicate (5hr, 15 µM): 23926 and 23869; TGR inhibition visualized by TRFS-Green, Average (5hr, 30 µM): 21898.5; TGR inhibition visualized by TRFS-Green, single replicate (5hr, 30 µM): 21774 and 22023; TGR inhibition visualized by TRFS-Green, Average (24hr, 5 µM): 29485; TGR inhibition visualized by TRFS-Green, single replicate (24hr, 5 µM): 29989 and 28981; TGR inhibition visualized by TRFS-Green, Average (24hr, 15 µM): 27619.5; TGR inhibition visualized by TRFS-Green, single replicate (24hr, 15 µM): 27128 and 28111; TGR inhibition visualized by TRFS-Green, Average (24hr, 30 µM): 25005.5; TGR inhibition visualized by TRFS-Green, single replicate (24hr, 30 µM): 25040 and 24971
Cc1oc(C2CCCCC2)nc1C(=O)N[C@@H]1C[C@@H]2C[C@H]([C@H]1C)C2(C)C [C7 (8VP108)] | 12657 | 12650 and 12664 | 10865 | 11062 and 10668 | 10431.5 | 10627 and 10236 | 18963 | 19690 and 18236 | 17493 | 17993 and 16993 | 16380.5 | 16170 and 16591 | 32388.5 | 32805 and 31972 | 28933.5 | 28944 and 28923 | 28582 | 28060 and 29104 | 35273.5 | 35655 and 34892 | TGR inhibition visualized by TRFS-Green, Average (4hr, 15 µM): 29029; TGR inhibition visualized by TRFS-Green, single replicate (4hr, 15 µM): 29202 and 28856; TGR inhibition visualized by TRFS-Green, Average (4hr, 30 µM): 28478.5; TGR inhibition visualized by TRFS-Green, single replicate (4hr, 30 µM): 28833 and 28124; TGR inhibition visualized by TRFS-Green, Average (5hr, 5 µM): 39296; TGR inhibition visualized by TRFS-Green, single replicate (5hr, 5 µM): 39469 and 39123; TGR inhibition visualized by TRFS-Green, Average (5hr, 15 µM): 32855.5; TGR inhibition visualized by TRFS-Green, single replicate (5hr, 15 µM): 32828 and 32883; TGR inhibition visualized by TRFS-Green, Average (5hr, 30 µM): 29603; TGR inhibition visualized by TRFS-Green, single replicate (5hr, 30 µM): 29933 and 29273; TGR inhibition visualized by TRFS-Green, Average (24hr, 5 µM): 44285; TGR inhibition visualized by TRFS-Green, single replicate (24hr, 5 µM): 44288 and 44282; TGR inhibition visualized by TRFS-Green, Average (24hr, 15 µM): 35708; TGR inhibition visualized by TRFS-Green, single replicate (24hr, 15 µM): 35593 and 35823; TGR inhibition visualized by TRFS-Green, Average (24hr, 30 µM): 33705.5; TGR inhibition visualized by TRFS-Green, single replicate (24hr, 30 µM): 33980 and 33431
C[C@@H]1[C@H]2C[C@@H](C[C@H]1NCc1nc3ccccc3n1C1CCCCCC1)C2(C)C [C8 (9VP173)] | 11538.5 | 11535 and 11542 | 11107.5 | 11094 and 11121 | 7413.5 | 7434 and 7393 | 18549 | 18864 and 18234 | 17855.5 | 17877 and 17834 | 9154.5 | 9096 and 9213 | 28617 | 28491 and 28743 | 26316 | 26509 and 26123 | 12119 | 12004 and 12234 | 29563.5 | 29504 and 29623 | TGR inhibition visualized by TRFS-Green, Average (4hr, 15 µM): 26307.5; TGR inhibition visualized by TRFS-Green, single replicate (4hr, 15 µM): 26632 and 25983; TGR inhibition visualized by TRFS-Green, Average (4hr, 30 µM): 10530.5; TGR inhibition visualized by TRFS-Green, single replicate (4hr, 30 µM): 10830 and 10231; TGR inhibition visualized by TRFS-Green, Average (5hr, 5 µM): 37986; TGR inhibition visualized by TRFS-Green, single replicate (5hr, 5 µM): 37989 and 37983; TGR inhibition visualized by TRFS-Green, Average (5hr, 15 µM): 27117; TGR inhibition visualized by TRFS-Green, single replicate (5hr, 15 µM): 26702 and 27532; TGR inhibition visualized by TRFS-Green, Average (5hr, 30 µM): 12834; TGR inhibition visualized by TRFS-Green, single replicate (5hr, 30 µM): 12855 and 12813; TGR inhibition visualized by TRFS-Green, Average (24hr, 5 µM): 47666; TGR inhibition visualized by TRFS-Green, single replicate (24hr, 5 µM): 46698 and 48634; TGR inhibition visualized by TRFS-Green, Average (24hr, 15 µM): 29478.5; TGR inhibition visualized by TRFS-Green, single replicate (24hr, 15 µM): 29985 and 28972; TGR inhibition visualized by TRFS-Green, Average (24hr, 30 µM): 14283.5; TGR inhibition visualized by TRFS-Green, single replicate (24hr, 30 µM): 14485 and 14082
